Measured values published in the supplement of paper PMC5412046.

Tested on: SB.msgc-1
Experiment: AC50 for growth inhibition (viability) (log10 M); higher = less potent
Details: SB.msgc-1 (sporadic gastric cancer)
How it was run: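 Gastric cancer cells derived from patients with hereditary or sporadic disease were seeded at 500 cells in 5 μL medium per 1536 well. A pintool delivered 23 nL of compound in DMSO, as 11 threefold dilutions from a final 46 μM. After 48 h, CellTiter-Glo was added for 30 min at room temperature and luminescence was read on a ViewLux. The log half-maximal activity concentration was taken from a four-parameter fit of viability normalised to DMSO, using only high-quality curve classes.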

## c1cc(N[C@@H]2CCNC2)nc(-c2cnc3ccc(-c4cn[nH]c4)cn23)c1
  AC50 for growth inhibition (log10 M): -4.68

## c1ccc(-c2nn3c(c2-c2ccnc4cc(OCCN5CCOCC5)ccc24)CCC3)nc1
  AC50 for growth inhibition (log10 M): -4.68

## CC(C)c1noc(N2CCC(COc3ccc(-c4ccc([S+](C)(=O)[O-])cc4)nc3)CC2)n1
  AC50 for growth inhibition (log10 M): -5.23

## CC(C)C1=N[N](C\2=C1C(=O)N\C(=N2)CC3=CC=C(OCCO)C=C3)C4=C(Cl)C=CC=C4Cl
  AC50 for growth inhibition (log10 M): -6.88

## CC(C)CC(=O)Nc1n[nH]c2c1CN(C(=O)C1CCN(C)CC1)C2(C)C
  AC50 for growth inhibition (log10 M): -5.83

## Cc1ccc(C(N)=O)cc1Nc1nccc(-c2cn(C(C)C)c3cnccc23)n1
  AC50 for growth inhibition (log10 M): -5.28

## CC/1=C(/C(CC(=O)N1)C2=CC=C(C=C2)C(F)(F)F)C(=O)NC3=C(F)C=C4[NH]N=CC4=C3 (stereo not drawn)
  AC50 for growth inhibition (log10 M): -5.03

## Cc1ccccc1C(C(=O)NC1CCCC1)N(C(=O)Cn1cnc2ccccc21)c1cccc(F)c1 (stereo not drawn)
  AC50 for growth inhibition (log10 M): -4.63

## CC1=C2N=C([NH]C2=CC(=C1)N3CCOCC3)\C4=C(NC[C@@H](O)C5=CC=CC(=C5)Cl)\C=C/NC4=O
  AC50 for growth inhibition (log10 M): -5.78

## Cc1cc2c(cc1C1(c3ccc(C(=O)O)cn3)CC1)C(C)(C)CCC2(C)C
  AC50 for growth inhibition (log10 M): -4.73

## Cc1cccc(Nc2nc(-c3ccncc3)cs2)c1
  AC50 for growth inhibition (log10 M): -4.68

## Cc1ccnc(N[S+](=O)([O-])c2ccc(NC(=O)Nc3ccc([S+](=O)([O-])Nc4nccc(C)n4)cc3)cc2)n1
  AC50 for growth inhibition (log10 M): -4.68

## CC1COC2(CCN(CC2)C/3=N/C(=O)C4=CC(=CC(=C4S3)[N+]([O-])=O)C(F)(F)F)O1 (stereo not drawn)
  AC50 for growth inhibition (log10 M): -4.78

## CCc1cncnc1N1CCN(Cc2nc3cc(C(F)(F)F)ccc3[nH]2)CC1
  AC50 for growth inhibition (log10 M): -5.13

## CCc1cccc(CC)c1NC(=O)N1Cc2[nH]nc(NC(=O)c3ccc(N4CCN(C)CC4)cc3)c2C1
  AC50 for growth inhibition (log10 M): -4.63

## CCNC(=O)C[C@H]1/N=C(/C2=CC=C(Cl)C=C2)C3=CC(=CC=C3[N]4C(=NN=C14)C)OC
  AC50 for growth inhibition (log10 M): -5.03

## CCNC(=O)Nc1ccc(Oc2ncnc(N)c2/C=N/OC)cc1Cl
  AC50 for growth inhibition (log10 M): -4.88

## CN(C)CCN(C)C(=O)c1ccc(NC(=O)Nc2ccc(-c3nc(N4CCOCC4)c4ccn(CC(F)(F)F)c4n3)cc2)cc1
  AC50 for growth inhibition (log10 M): -5.18

## CN(C)CCOc1ccc(-c2nc(-c3ccncc3)c(-c3ccc4c(c3)CC/C4=N\O)[nH]2)cc1
  AC50 for growth inhibition (log10 M): -4.68

## CN1C(=O)C(=C\C2=C1N=C(NC3=CC=CC(=C3)C(O)=O)N=C2)/C4=C(Cl)C=CC=C4Cl
  AC50 for growth inhibition (log10 M): -5.78

## CN1CCN(c2ccc([N+](=O)[O-])c3no[n+]([O-])c23)CC1
  AC50 for growth inhibition (log10 M): -4.63

## CN1CCN(c2cccc(Nc3nc4c(-c5ccc([S+](C)(=O)[O-])cc5)cccn4n3)c2)CC1
  AC50 for growth inhibition (log10 M): -4.78

## CNC(=O)C1=CC=C(C)C(=C1)N2C(=C/C(=C(/Br)C2=O)OCC3=C(F)C=C(F)C=C3)\C
  AC50 for growth inhibition (log10 M): -4.98

## CNC(=O)c1ccc2c(c1)NC(=O)/C2=C(\Nc1cccc(CN(C)C)c1)c1ccccc1
  AC50 for growth inhibition (log10 M): -4.93

## CNC(=O)N1\N=C(\C2=CC=C(N)C=C2)C3=CC4=C(OCO4)C=C3CC1C (stereo not drawn)
  AC50 for growth inhibition (log10 M): -5.08

## CNc1nc(-c2ccc3c(N)n[nH]c3c2)cc(N2C[C@@H](C(=O)NC3CCCCC3)CC[C@H]2C)n1
  AC50 for growth inhibition (log10 M): -4.68

## COc1cc(Cl)cn2c(-c3cccc(NC4CNC4)n3)cnc12
  AC50 for growth inhibition (log10 M): -4.68

## COc1ccc(COc2cc3oc(=O)c4cc(C(C)O)ccc4c3cc2OC)cc1 (stereo not drawn)
  AC50 for growth inhibition (log10 M): -4.63

## COc1ccc2c(c1)CC[C@@H](CN(C)CC(=O)O)[C@H]2c1ccccc1
  AC50 for growth inhibition (log10 M): -5.63

## COC1=CC=CC(=C1N)\C2=C\C(=O)C3=C(O2)C=CC=C3
  AC50 for growth inhibition (log10 M): -4.68

## COCC(=O)NC/C=C/c1ccc2ncnc(Nc3ccc(Oc4ccc(C)nc4)c(C)c3)c2c1
  AC50 for growth inhibition (log10 M): -6.58

## COCCOc1ccc2c(c1)ncn2-c1ccc2cccc(N3CCC(N)CC3)c2n1
  AC50 for growth inhibition (log10 M): -5.23

## C[C@H](c1ccc(F)cc1CCCC(=O)O)N(c1cc(F)ccc1F)[S+](=O)([O-])c1ccc(Cl)cc1
  AC50 for growth inhibition (log10 M): -4.78

## C[C@@H](N)c1ccc(C(=O)Nc2ccnc3[nH]ccc23)cc1
  AC50 for growth inhibition (log10 M): -4.78

## C[C@@H](Oc1cc(-n2cnc3ccc(CN4CCN(C)CC4)cc32)sc1C(N)=O)c1ccccc1C(F)(F)F
  AC50 for growth inhibition (log10 M): -7.13

## C[C@H](NCc1ccc2c(c1)nc(NC(=O)c1ccc(-c3cn[nH]c3)s1)n2CCc1ccccc1)C(C)(C)C
  AC50 for growth inhibition (log10 M): -6.03

## C[C@@]1(C(=O)Nc2ccc(F)nc2)CCCN1c1nc(Nc2cc(C3CC3)[nH]n2)c2cccn2n1
  AC50 for growth inhibition (log10 M): -4.73

## Cn1ccc2cc3c(cc21)CCN3C(=O)Nc1cccnc1
  AC50 for growth inhibition (log10 M): -5.03

## C[S+](=O)([O-])c1cccc(CNc2nc(Nc3ccc4c(c3)CCC(=O)N4)ncc2C(F)(F)F)c1
  AC50 for growth inhibition (log10 M): -4.78

## O=C(NCc1ccncc1)C12C[C@H]3C[C@@H](C1)CC(c1ccc(Cl)cc1)(C3)C2
  AC50 for growth inhibition (log10 M): -4.98

## ClC1=C[NH]N=C1C\2NC(=N\C3=C2C(=O)CCC3)/NC4=NC5=CC=CC=C5O4 (stereo not drawn)
  AC50 for growth inhibition (log10 M): -4.78

## O=C(N[C@@H](c1ccccc1)[C@@H]1CCCCN1)c1cccc(C(F)(F)F)c1Cl
  AC50 for growth inhibition (log10 M): -5.88

## O=C(Nc1ccccc1Br)N[C@@H]1CCN(c2ccc(C(F)(F)F)cn2)C1
  AC50 for growth inhibition (log10 M): -4.73
